# Results: PubChem BioAssay (NCI)
#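 Grown in 96-well plates, cells were treated for 48 hours with each compound at five concentrations. Insufficient inhibition: endpoint recorded as highest concentration tested. TGI marks complete inhibition of growth.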
# Tests used:
# Test in all cases: DTP human tumour cell line panel, 48 h
# ACHN renal = system: ACHN renal
# KM12 colon = system: KM12 colon
# MALME-3M melanoma = system: MALME-3M melanoma
# OVCAR-8 ovarian = system: OVCAR-8 ovarian
# HOP-92 NSCLC = system: HOP-92 NSCLC
# OVCAR-5 ovarian = system: OVCAR-5 ovarian
# MOLT-4 leukemia = system: MOLT-4 leukemia
# UACC-257 melanoma = system: UACC-257 melanoma
# A549 NSCLC = system: A549 NSCLC
# CCRF-CEM leukemia = system: CCRF-CEM leukemia
# SW-620 colon = system: SW-620 colon
# SK-OV-3 ovarian = system: SK-OV-3 ovarian
# HT29 colon = system: HT29 colon
# M14 melanoma = system: M14 melanoma
# OVCAR-3 ovarian = system: OVCAR-3 ovarian
# TK-10 renal = system: TK-10 renal
# MCF7 breast = system: MCF7 breast
# SNB-19 CNS = system: SNB-19 CNS
# COLO 205 colon = system: COLO 205 colon
# NCI/ADR-RES ovarian = system: NCI/ADR-RES ovarian
# UACC-62 melanoma = system: UACC-62 melanoma
# SK-MEL-2 melanoma = system: SK-MEL-2 melanoma
# MDA-MB-435 = system: MDA-MB-435
# UO-31 renal = system: UO-31 renal
# MDA-MB-231 breast = system: MDA-MB-231 breast
# U251 CNS = system: U251 CNS
# NCI-H23 lung = system: NCI-H23 lung
# HCT-116 colon = system: HCT-116 colon
# LOX IMVI melanoma = system: LOX IMVI melanoma
# NCI-H460 lung = system: NCI-H460 lung
# PC-3 prostate = system: PC-3 prostate
# HOP-62 NSCLC = system: HOP-62 NSCLC
# NCI-H522 lung = system: NCI-H522 lung
# RPMI-8226 leukemia = system: RPMI-8226 leukemia
# SF-539 CNS = system: SF-539 CNS
# HS 578T breast = system: HS 578T breast
# IGROV1 ovarian = system: IGROV1 ovarian
# SF-268 CNS = system: SF-268 CNS
# NCI-H226 lung = system: NCI-H226 lung
# RXF 393 renal = system: RXF 393 renal
# T-47D breast = system: T-47D breast
# EKVX NSCLC = system: EKVX NSCLC
# SN12C renal = system: SN12C renal
# CAKI-1 renal = system: CAKI-1 renal
# HCT-15 colon = system: HCT-15 colon
# SK-MEL-5 melanoma = system: SK-MEL-5 melanoma
# A498 renal = system: A498 renal
# OVCAR-4 ovarian = system: OVCAR-4 ovarian
# SK-MEL-28 melanoma = system: SK-MEL-28 melanoma
# HL-60(TB) leukemia = system: HL-60(TB) leukemia
# SF-295 CNS = system: SF-295 CNS
# MDA-N = system: MDA-N
# DU-145 prostate = system: DU-145 prostate
# BT-549 breast = system: BT-549 breast
# SNB-75 CNS = system: SNB-75 CNS
# SR leukemia = system: SR leukemia
# HCC-2998 colon = system: HCC-2998 colon
# K-562 leukemia = system: K-562 leukemia
# 786-0 renal = system: 786-0 renal
compound,measurement,setting,value
Cc1c(N=C/C=C/c2ccccc2)c(=O)n(-c2ccccc2)n1C,TGI,ACHN renal,> 100 µM
same,TGI,KM12 colon,77.2 µM
same,TGI,MALME-3M melanoma,62.9 µM
same,TGI,OVCAR-8 ovarian,54.4 µM
same,TGI,HOP-92 NSCLC,> 100 µM
same,TGI,OVCAR-5 ovarian,> 100 µM
same,TGI,MOLT-4 leukemia,83.8 µM
same,TGI,UACC-257 melanoma,> 100 µM
same,TGI,A549 NSCLC,> 100 µM
same,TGI,CCRF-CEM leukemia,30.1 µM
same,TGI,SW-620 colon,58.4 µM
same,TGI,SK-OV-3 ovarian,> 100 µM
same,TGI,HT29 colon,> 100 µM
same,TGI,M14 melanoma,38.9 µM
same,TGI,OVCAR-3 ovarian,67.9 µM
same,TGI,TK-10 renal,> 100 µM
same,TGI,MCF7 breast,60.5 µM
same,TGI,SNB-19 CNS,> 100 µM
same,TGI,COLO 205 colon,> 100 µM
same,TGI,NCI/ADR-RES ovarian,79.6 µM
same,TGI,UACC-62 melanoma,36 µM
same,TGI,SK-MEL-2 melanoma,> 100 µM
same,TGI,MDA-MB-435,> 100 µM
same,TGI,UO-31 renal,> 100 µM
same,TGI,MDA-MB-231 breast,> 100 µM
same,TGI,U251 CNS,73.3 µM
same,TGI,NCI-H23 lung,69.8 µM
same,TGI,HCT-116 colon,29.2 µM
same,TGI,LOX IMVI melanoma,25 µM
same,TGI,NCI-H460 lung,> 100 µM
same,TGI,PC-3 prostate,> 100 µM
same,TGI,HOP-62 NSCLC,95.8 µM
same,TGI,NCI-H522 lung,> 100 µM
same,TGI,RPMI-8226 leukemia,38.6 µM
same,TGI,SF-539 CNS,64.4 µM
same,TGI,HS 578T breast,69.8 µM
same,TGI,IGROV1 ovarian,> 100 µM
same,TGI,SF-268 CNS,> 100 µM
same,TGI,NCI-H226 lung,38 µM
same,TGI,RXF 393 renal,> 100 µM
same,TGI,T-47D breast,62.4 µM
same,TGI,EKVX NSCLC,81.8 µM
same,TGI,SN12C renal,43.4 µM
same,TGI,CAKI-1 renal,> 100 µM
same,TGI,HCT-15 colon,> 100 µM
same,TGI,SK-MEL-5 melanoma,31 µM
same,TGI,A498 renal,87.2 µM
same,TGI,OVCAR-4 ovarian,40.9 µM
same,TGI,SK-MEL-28 melanoma,39.8 µM
same,TGI,HL-60(TB) leukemia,48.2 µM
same,TGI,SF-295 CNS,40.6 µM
same,TGI,MDA-N,54 µM
same,TGI,DU-145 prostate,> 100 µM
same,TGI,BT-549 breast,58.1 µM
COC(=O)/C=C1/OC(c2ccccc2)=C(C)C1=O,TGI,ACHN renal,25.7 µM
same,TGI,SNB-75 CNS,43 µM
same,TGI,KM12 colon,27.1 µM
same,TGI,MALME-3M melanoma,26.7 µM
same,TGI,OVCAR-8 ovarian,81.6 µM
same,TGI,HOP-92 NSCLC,26.2 µM
same,TGI,SR leukemia,7.09 µM
same,TGI,OVCAR-5 ovarian,30.6 µM
same,TGI,MOLT-4 leukemia,> 100 µM
same,TGI,HCC-2998 colon,30.2 µM
same,TGI,CCRF-CEM leukemia,> 100 µM
same,TGI,SW-620 colon,5.58 µM
same,TGI,SK-OV-3 ovarian,22.6 µM
same,TGI,HT29 colon,4.79 µM
same,TGI,M14 melanoma,24.4 µM
same,TGI,OVCAR-3 ovarian,41.9 µM
same,TGI,TK-10 renal,29.1 µM
same,TGI,MCF7 breast,16.6 µM
same,TGI,SNB-19 CNS,30.5 µM
same,TGI,COLO 205 colon,31.3 µM
same,TGI,NCI/ADR-RES ovarian,65.5 µM
same,TGI,UACC-62 melanoma,11.5 µM
same,TGI,MDA-MB-435,27.5 µM
same,TGI,UO-31 renal,26.7 µM
same,TGI,MDA-MB-231 breast,15.7 µM
same,TGI,U251 CNS,27.1 µM
same,TGI,NCI-H23 lung,43.6 µM
same,TGI,HCT-116 colon,15.4 µM
same,TGI,LOX IMVI melanoma,2.72 µM
same,TGI,NCI-H460 lung,39.2 µM
same,TGI,K-562 leukemia,15 µM
same,TGI,HOP-62 NSCLC,31.4 µM
same,TGI,NCI-H522 lung,57.5 µM
same,TGI,RPMI-8226 leukemia,5.65 µM
same,TGI,SF-539 CNS,32.2 µM
same,TGI,786-0 renal,22.3 µM
same,TGI,HS 578T breast,83.9 µM
same,TGI,IGROV1 ovarian,28.4 µM
same,TGI,SF-268 CNS,35.5 µM
same,TGI,NCI-H226 lung,38.6 µM
same,TGI,RXF 393 renal,22.5 µM
same,TGI,T-47D breast,42.7 µM
same,TGI,EKVX NSCLC,32 µM
same,TGI,CAKI-1 renal,14.8 µM
same,TGI,HCT-15 colon,17 µM
same,TGI,SK-MEL-5 melanoma,34.2 µM
same,TGI,A498 renal,32.8 µM
same,TGI,SK-MEL-28 melanoma,31.1 µM
same,TGI,HL-60(TB) leukemia,4.97 µM
same,TGI,SF-295 CNS,26.1 µM
same,TGI,MDA-N,5.71 µM
same,TGI,DU-145 prostate,33.6 µM
same,TGI,BT-549 breast,8.45 µM
O=Cc1cc(C(=O)OCc2ccccc2)n(S(=O)(=O)c2ccccc2)c1,TGI,ACHN renal,36.6 µM
same,TGI,SNB-75 CNS,82.1 µM
same,TGI,KM12 colon,37.6 µM
same,TGI,MALME-3M melanoma,> 100 µM
same,TGI,OVCAR-8 ovarian,> 100 µM
same,TGI,SR leukemia,> 100 µM
same,TGI,OVCAR-5 ovarian,37.6 µM
same,TGI,MOLT-4 leukemia,> 100 µM
same,TGI,UACC-257 melanoma,64 µM
same,TGI,A549 NSCLC,68.7 µM
same,TGI,HCC-2998 colon,33.7 µM
same,TGI,CCRF-CEM leukemia,> 100 µM
same,TGI,SK-OV-3 ovarian,66.3 µM
same,TGI,HT29 colon,48.4 µM
same,TGI,M14 melanoma,36.2 µM
same,TGI,OVCAR-3 ovarian,35.6 µM
same,TGI,TK-10 renal,69.6 µM
same,TGI,MCF7 breast,67.2 µM
same,TGI,SNB-19 CNS,> 100 µM
same,TGI,COLO 205 colon,55.1 µM
same,TGI,NCI/ADR-RES ovarian,98.6 µM
same,TGI,UACC-62 melanoma,31.6 µM
same,TGI,SK-MEL-2 melanoma,39.6 µM
same,TGI,MDA-MB-435,12.9 µM
same,TGI,UO-31 renal,44.1 µM
same,TGI,MDA-MB-231 breast,78.1 µM
same,TGI,NCI-H23 lung,60.9 µM
same,TGI,HCT-116 colon,25.7 µM
same,TGI,LOX IMVI melanoma,62.5 µM
same,TGI,NCI-H460 lung,70.2 µM
same,TGI,K-562 leukemia,> 100 µM
same,TGI,PC-3 prostate,53.6 µM
same,TGI,HOP-62 NSCLC,33.7 µM
same,TGI,NCI-H522 lung,> 100 µM
same,TGI,SF-539 CNS,28.6 µM
same,TGI,786-0 renal,> 100 µM
same,TGI,HS 578T breast,49.2 µM
same,TGI,IGROV1 ovarian,84 µM
same,TGI,SF-268 CNS,65.5 µM
same,TGI,RXF 393 renal,94.9 µM
same,TGI,T-47D breast,> 100 µM
same,TGI,EKVX NSCLC,94.4 µM
same,TGI,SN12C renal,66.1 µM
same,TGI,CAKI-1 renal,55.2 µM
same,TGI,HCT-15 colon,50.7 µM
same,TGI,SK-MEL-5 melanoma,20.2 µM
same,TGI,OVCAR-4 ovarian,> 100 µM
same,TGI,SK-MEL-28 melanoma,30.2 µM
same,TGI,HL-60(TB) leukemia,63 µM
same,TGI,SF-295 CNS,29 µM
same,TGI,MDA-N,30.3 µM
same,TGI,DU-145 prostate,> 100 µM
same,TGI,BT-549 breast,33.9 µM
O=C(c1ccccc1)N1CCC(CC2(c3cc4ccccc4[nH]3)OCCO2)CC1,TGI,ACHN renal,> 100 µM
same,TGI,SNB-75 CNS,> 100 µM
same,TGI,KM12 colon,> 100 µM
same,TGI,OVCAR-8 ovarian,> 100 µM
same,TGI,HOP-92 NSCLC,93 µM
same,TGI,SR leukemia,> 100 µM
same,TGI,OVCAR-5 ovarian,> 100 µM
same,TGI,MOLT-4 leukemia,58.1 µM
same,TGI,UACC-257 melanoma,51.9 µM
same,TGI,A549 NSCLC,> 100 µM
same,TGI,CCRF-CEM leukemia,> 100 µM
same,TGI,SW-620 colon,> 100 µM
same,TGI,SK-OV-3 ovarian,> 100 µM
same,TGI,HT29 colon,85.9 µM
same,TGI,M14 melanoma,39.6 µM
same,TGI,OVCAR-3 ovarian,> 100 µM
same,TGI,TK-10 renal,> 100 µM
same,TGI,MCF7 breast,43.9 µM
same,TGI,SNB-19 CNS,> 100 µM
same,TGI,COLO 205 colon,40.1 µM
same,TGI,NCI/ADR-RES ovarian,> 100 µM
same,TGI,UACC-62 melanoma,39.4 µM
same,TGI,SK-MEL-2 melanoma,73.6 µM
same,TGI,MDA-MB-435,51 µM
same,TGI,UO-31 renal,> 100 µM
same,TGI,MDA-MB-231 breast,> 100 µM
same,TGI,U251 CNS,> 100 µM
same,TGI,NCI-H23 lung,> 100 µM
same,TGI,HCT-116 colon,> 100 µM
same,TGI,LOX IMVI melanoma,35.6 µM
same,TGI,NCI-H460 lung,> 100 µM
same,TGI,K-562 leukemia,37.6 µM
same,TGI,PC-3 prostate,> 100 µM
same,TGI,HOP-62 NSCLC,> 100 µM
same,TGI,RPMI-8226 leukemia,6.36 µM
same,TGI,SF-539 CNS,> 100 µM
same,TGI,786-0 renal,34.7 µM
same,TGI,IGROV1 ovarian,> 100 µM
same,TGI,SF-268 CNS,> 100 µM
same,TGI,NCI-H226 lung,> 100 µM
same,TGI,RXF 393 renal,> 100 µM
same,TGI,T-47D breast,> 100 µM
same,TGI,EKVX NSCLC,> 100 µM
same,TGI,SN12C renal,> 100 µM
same,TGI,CAKI-1 renal,> 100 µM
same,TGI,HCT-15 colon,> 100 µM
same,TGI,SK-MEL-5 melanoma,42.3 µM
same,TGI,A498 renal,62.8 µM
same,TGI,OVCAR-4 ovarian,> 100 µM
same,TGI,SK-MEL-28 melanoma,37.4 µM
same,TGI,SF-295 CNS,> 100 µM
same,TGI,MDA-N,87.5 µM
same,TGI,DU-145 prostate,> 100 µM
same,TGI,BT-549 breast,> 100 µM
